The numbers were not newly measured in article PMC10855781 (International Journal of Molecular Sciences, 2024), which cites them from elsewhere.

Series [1] has as its system Human cardiac myocytes (HCM). Also noted: key: 0: no cardiotoxicity; +: weak; ++: moderate; +++: strong cardiotoxicity. As to conditions: long-term (0–72 h) cytotoxic effect, impedimetric; ref [75]. The source says:
Table 2 Comparative study of cytotoxic effects and cardiotoxicity elicited by selected GnRH-based anthracycline conjugates. | column: Cardiotoxicity || The main drug-related toxic side effect of anthracyclines is cardiotoxicity, leading to cardiomyopathy and heart failure. Comparative experiments to determine the cardiotoxicity of peptide–anthracycline conjugates with different linkages might be informative for the other conjugates with different types of drugs as well. For this purpose, human cardiomyocytes (HCM) and human umbilical vein endothelial cells (HUVEC) were used as models. The long-term (0–72 h) cytotoxic effect of sixteen GnRH-based conjugates containing Dox and Dau was determined by real-time impedimetric sensing using th ...

Series [2] concerns human colorectal adenocarcinoma (HT-29). As to conditions: Table 2; ref [75]. From the text:
Table 2 Comparative study of cytotoxic effects and cardiotoxicity elicited by selected GnRH-based anthracycline conjugates. || Table 3 In vivo tumor growth inhibition of a few relevant Dau-GnRH-III conjugates. | column: Cytostatic Effect (IC50: μM) on HT-29 cells

The test system of a further series is DNA. As to conditions: apparent equilibrium binding constant; ref [72]. The source says: Figure 2 The equilibrium binding constants of daunomycin (Dau) and its oxime-linked amino acid derivatives to DNA. TEXT PRINTED IN THE PICTURE: Dau: K (x10^5)(M^−1): 11.7 | H-Lys(Dau=Aoa-OH): K (x10^5)(M^−1): 6.8 | Dau=Aoa-Gly-OH: K (x10^5)(M^−1): 6.74 | Dau=Aoa-Tyr-OH: K (x10^5)(M^−1): 4.4 | Dau=Aoa-Leu-OH: K (x10^5)(M^−1): 3.23

Another series relates to C26 murine colon cancer. As to conditions: ref [20]. Here is the method:
Table 3 In vivo tumor growth inhibition of a few relevant Dau-GnRH-III conjugates. | column: C26 ^a s.c. Balb/c [%] || In our experiments, GnRH-III was applied as a targeting peptide. […] The effect highly depended on the treatment schedule. In the first attempt, the conjugate was administered i.p. at a dose of 8.86 μmol (5 mg Dau-content/kg body weight) five times on days 7, 9, 11, 14 and 16 after tumor transplantation ...

For a further series, the system named is C26 colon tumor. The note with it: (w) tumor weight reduction, day 13; treatments days 4 and 7; conjugates 26.6 μmol/kg (15 mg Dau content), Dau 2 mg/kg; ref [82],[86]. Here is the method:
Table 3 In vivo tumor growth inhibition of a few relevant Dau-GnRH-III conjugates. | column: C26 orth. […] In the case of the C26 colon tumor-bearing female Balb/c mice, only a 7% reduction in tumor weight was detected on day 13 after the two treatments on days 4 and 7 with [^8Lys(Dau=Aoa)]-GnRH-III, at a 26.6 μmol/kg (15 mg Dau content) dose. […] It is worth ment ...

Another series concerns PANC-1 tumor. The note with it: ref [110]. The procedure: The in vivo tumor growth inhibitory effect of the conjugate and free Dau was investigated on s.c.-developed PANC-1 tumor-bearing SCID female mice. The free drug was applied once a week at a maximum tolerated dose of 1 mg/kg body weight (three treatments), while the conjugate was administered, on average, three times per a week either at a 2 mg/kg or 10 mg/kg dose, calculated as per the Dau content (eighteen treatments altogether). The first treatment was given on day 10 after tumor inoculation. After the third treatment with free Dau, the animals lost 20% of their weight; therefore, the mice i ...

Series [3] concerns PC-3 human prostatic adenocarcinoma. Set-up: method as in PMID 36834815. The note with it: s.c. PC-3; i.p. 10 mg Dau-content/kg every fifth day from day 9, five treatments; day 33; Dau 1 mg/kg, terminated day 26; ref [84]. From the text: This 14-mer peptide (Glp-[…]NH2), first discovered in the skin of the frog Bombina bombina, is associated with the gastrin-releasing peptide (GRP) as a mammalian counterpart. The bombesin receptor family comprises neuromedin receptor B (NMB-R, or BB1), gastrin-releasing peptide receptor (GRP-R, or BB2) and bombesin receptor subtype 3 (BRS-3, or BB3). Among them, GRP-R has been the most investig ...

In series [4] the test system is HT-29 human colon cancer. As to conditions: ref [82]. From the text: Table 3 In vivo tumor growth inhibition of a few relevant Dau-GnRH-III conjugates. | column: HT-29 orth. SCID [%] || Starting from these promising results, Dau conjugates with further GnRH-III derivatives using different short-chain fatty acids (on the side chains of Lys in position 4) were developed. […] The experiment finished on day 30, but the animals in the group treated with Dau had to be sacrificed on day 23. […] However, these numbers cannot be directly compared because the termination days were different during the experiment. The toxicities of the compound ...

Series [5] concerns HT-29 human colon cancer. The note with it: SCID mice, single i.p. 2.5 mg/kg (4.43 μmol); ref [81]. Here is the method: Table 3 In vivo tumor growth inhibition of a few relevant Dau-GnRH-III conjugates. | column: HT-29 ^b s.c. SCID [%] || In another experiment, HT-29 human colon cancer was developed s.c. in immunodeficient SCID mice. Dau and two conjugates (with or without a GFLG spacer between the GnRH-III homing peptide and the payload) were used for the treatment. The first i.p. administrations were performed on day 13 after tumor inoculation. All the mice treated once with 2.5 mg/kg body weight (4.43 μmol) free Dau died within 10 days. In contrast, the conjugates at a dose of 15 mg Dau content/kg body weight (26.6 μmol) that refers to 52 mg/kg [^8Lys(Dau=Aoa)]-GnRH-III and 62.5 mg/kg [^8Lys(Dau=Aoa-GFLG)]-GnRH-III co ...

Series [6] concerns human breast adenocarcinoma (MCF-7). The note with it: ref [75]. From the text: Table 2 Comparative study of cytotoxic effects and cardiotoxicity elicited by selected GnRH-based anthracycline conjugates. | column: IC50 Values (μM)

Regarding `COc1cccc2c1C(=O)c1c(O)c3c(c(O)c1C2=O)C[C@@](O)(C(C)=O)C[C@@H]3O[C@H]1C[C@H](N)[C@H](O)[C@H](C)O1` [Dau, daunomycin], in series [1], the “Cardiotoxicity, HCM” value is “+++”. Besides, the values for the half-inhibitory concentration (IC50) in series [2] and in series [6] were 300 ± 200 nM and 400 ± 100 nM, respectively. In addition, in the series on DNA, the “K, equilibrium binding constant to DNA” value was 1.17e+06 M⁻¹. Moreover, the tumor volume inhibition is on record as 22.6% in the series with C26 murine colon cancer (free Dau 2 mg/kg (3.55 μmol) days 7, 9, 11, 14, 16, day 26) and “without showing a significant reduction” in series [3]. The “median survival rate in comparison to the control group” value in the series on C26 murine colon cancer (free Dau 2 mg/kg days 7, 9, 11, 14, 16) is recorded as 0.81. The “C26 orth. Balb/c tumor growth inhibition (w)” value in the series with C26 colon tumor is given as 24.4%. For the same compound, the “decrease in liver weight” value with PANC-1 tumor (Dau 1 mg/kg once a week, three treatments) is listed as 29.1%. Besides, in the series on PANC-1 tumor (after third treatment, 1 mg/kg once a week, sacrificed day 28), the body weight loss is 20%. Besides, the “relative liver weight loss in comparison with the controls” value in the series with HT-29 human colon cancer [4] (Dau 1 mg/kg i.v. weekly for 7 weeks) is on record as 11%. Moreover, in the series with HT-29 human colon cancer [4] (conjugates 17.72 μmol (10 mg Dau content)/kg s.c. x7, end day 30, Dau 1 mg/kg days 7, 13, 20, sacrificed day 23), the tumor weight reduction is 84.3%. For the same compound, in the series with HT-29 human colon cancer [4] (conjugates 15 mg Dau content/kg i.v. x5 from day 5, then 7.5 mg i.p. x8, twice a week, Dau 1 mg/kg i.v. weekly for 7 weeks), the “reduction in tumor weight” value is 29.7%. The “proliferation index compared to the controls” value in the series on HT-29 human colon cancer [4] (same experiment as E44, average) is recorded as 98.6%. Also, in the series on HT-29 human colon cancer [4] (same experiment as E44), the “vascularization rate compared to the controls” value was 112.5%. The “rate of changes in the liver and body weights” value with HT-29 human colon cancer [4] (same experiment as E49) is recorded as 70.6%. The “time within which all treated mice died” value in the series with HT-29 human colon cancer [5] is listed as no more than 10 days.

A word on the IC50: it is the concentration that gives 50% inhibition.
